Experimental data from article PMC5622171 (Nature Communications, 2017).

Columns and labels:
[1] = test system: LS180 cells with stable exogenous expression of hPXR; assay: CellTiter-Glo cytotoxicity assay; conditions: 10 µM SPA70
Experimental: For the LS180, SNU-C4 and LS1034 cytotoxicity assays, cells were seeded in a 96-well plate (Corning) at 4000 cells per well. […] Cell viability was assessed using the CellTiter-Glo assay.

hPXR with TIF2 = molecular target: T1, hPXR with TIF2 (Homo sapiens, UniProt O75469); assay: Mammalian two-hybrid assay; type: cell-based; conditions: LS180 cells; SPA70 10 µM, SJB7 4 µM
T1 construct: expressed in transfected cells; host or cells: LS180
Excerpt: (§1) The mammalian two-hybrid assay method has been described previously. Briefly, the CheckMate mammalian two-hybrid system (Promega) was used to evaluate the association between hPXR and its co-regulators. LS180 cells were co-transfected with an hPXR plasmid (pACT-hPXR, pACT-hPXRM429A or pACT-hPXRF429A), a coregulator plasmid (pBIND-SRC-1, pBIND-TIF2, pBIND-SMRTτ [amino acids 2077–2471], or pBIND-mNCoR [amino acids 1958–2401]), and a GAL4 firefly luciferase reporter plasmid (pG5-luc). The Renilla luciferase is constitutively expressed from the pBIND vector, and served as an internal transfection control. The activity of the firefly and Renilla luciferase was measured by using the Dual-Glo Luciferase Assay (Promega), and the relative luciferase activity of pG5-luc was determined by normalizing the activity of firefly luciferase to that of Renilla luciferase.

hPXR with SRC-1 = molecular target: T2, hPXR with SRC-1 (Homo sapiens, UniProt O75469); assay: Mammalian two-hybrid assay; type: cell-based; conditions: LS180 cells; SPA70 10 µM, SJB7 4 µM
T2 construct: expressed in transfected cells; host or cells: LS180
T2 sequence (Q15788 whole entry partner, one chain of several): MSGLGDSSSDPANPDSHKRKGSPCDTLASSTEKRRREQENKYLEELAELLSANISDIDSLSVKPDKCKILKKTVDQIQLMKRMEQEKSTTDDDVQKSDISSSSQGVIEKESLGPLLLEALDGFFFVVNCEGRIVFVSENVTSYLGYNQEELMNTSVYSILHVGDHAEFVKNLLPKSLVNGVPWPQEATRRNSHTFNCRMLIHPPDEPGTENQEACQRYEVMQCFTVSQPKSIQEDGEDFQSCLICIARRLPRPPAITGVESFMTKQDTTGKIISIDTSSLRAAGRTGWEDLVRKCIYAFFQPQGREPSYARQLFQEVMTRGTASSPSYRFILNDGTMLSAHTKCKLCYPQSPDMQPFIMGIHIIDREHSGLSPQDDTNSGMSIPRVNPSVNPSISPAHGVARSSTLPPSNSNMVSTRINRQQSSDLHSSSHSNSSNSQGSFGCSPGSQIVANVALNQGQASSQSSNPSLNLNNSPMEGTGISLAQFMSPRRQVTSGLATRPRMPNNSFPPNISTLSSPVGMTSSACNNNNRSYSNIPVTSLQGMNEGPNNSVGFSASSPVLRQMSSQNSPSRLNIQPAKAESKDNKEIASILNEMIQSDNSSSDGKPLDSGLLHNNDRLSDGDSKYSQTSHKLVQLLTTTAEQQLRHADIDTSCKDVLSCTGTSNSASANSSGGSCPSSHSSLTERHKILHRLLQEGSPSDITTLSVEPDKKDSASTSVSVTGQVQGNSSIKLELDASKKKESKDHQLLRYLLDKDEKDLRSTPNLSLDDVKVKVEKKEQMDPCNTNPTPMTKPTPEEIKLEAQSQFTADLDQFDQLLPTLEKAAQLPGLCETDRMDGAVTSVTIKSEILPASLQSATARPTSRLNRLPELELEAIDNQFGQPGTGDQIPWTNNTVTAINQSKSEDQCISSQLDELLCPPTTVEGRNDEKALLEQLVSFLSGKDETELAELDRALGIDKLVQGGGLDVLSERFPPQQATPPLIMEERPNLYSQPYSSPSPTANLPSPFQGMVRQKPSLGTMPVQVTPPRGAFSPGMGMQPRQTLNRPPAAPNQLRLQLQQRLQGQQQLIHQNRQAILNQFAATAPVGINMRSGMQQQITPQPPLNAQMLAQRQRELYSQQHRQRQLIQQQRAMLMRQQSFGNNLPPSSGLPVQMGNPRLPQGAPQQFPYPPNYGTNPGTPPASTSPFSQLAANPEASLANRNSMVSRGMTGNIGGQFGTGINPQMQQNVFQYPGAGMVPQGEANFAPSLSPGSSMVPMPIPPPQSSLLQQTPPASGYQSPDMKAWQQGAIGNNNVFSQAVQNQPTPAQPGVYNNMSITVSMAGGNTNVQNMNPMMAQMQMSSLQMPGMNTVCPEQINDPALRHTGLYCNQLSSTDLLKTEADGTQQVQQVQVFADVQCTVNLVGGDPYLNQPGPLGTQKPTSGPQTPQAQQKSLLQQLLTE
Excerpt: as §1

hPXR = molecular target: T3, hPXR (Homo sapiens, UniProt O75469); assay: hPXR transactivation assay using transient transfection in LS180 cells; type: cell-based; set-up: expressed in transfected cells; conditions: SPA70 10 μM, SJB7 4 μM
T3 sequence (O75469 1-434): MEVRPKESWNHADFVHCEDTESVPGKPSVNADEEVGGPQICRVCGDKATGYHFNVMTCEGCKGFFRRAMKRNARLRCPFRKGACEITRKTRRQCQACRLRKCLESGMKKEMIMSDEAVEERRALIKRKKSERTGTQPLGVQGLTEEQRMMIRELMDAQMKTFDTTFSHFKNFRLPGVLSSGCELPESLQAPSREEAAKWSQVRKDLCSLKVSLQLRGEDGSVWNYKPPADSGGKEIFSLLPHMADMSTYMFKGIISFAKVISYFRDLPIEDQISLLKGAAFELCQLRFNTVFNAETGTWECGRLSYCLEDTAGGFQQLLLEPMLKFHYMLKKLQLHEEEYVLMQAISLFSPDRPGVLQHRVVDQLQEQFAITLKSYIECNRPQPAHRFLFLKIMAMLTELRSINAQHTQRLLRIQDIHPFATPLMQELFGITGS
Experimental: The hPXR transactivation assay using transient transfection (agonist and antagonist modes) were performed as described previously. Briefly, LS180 cells were co-transfected with pGL3-CYP3A4-luc (CYP3A4-luciferase reporter) and pRL-TK (as a transfection control), together with pcDNA3, pcDNA3-hPXR, pcDNA3-hPXRM425A, or pcDNA3-hPXRF429A, by using FuGENE 6 (Roche). The pcDNA3-hPXR mutants (pcDNA3-hPXRM425A and pcDNA3-hPXRF429A) were obtained from Codex BioSolutions, Inc. (Gaithersburg, MD). Mutations were verified through nucleotide sequencing, using primers shown in Supplementary Table 3.

[2] = test system: hPXR transcriptional target genes; assay: DNA microarray analysis in primary human hepatocytes; type: cell-based; conditions: 2.5 μM SPA70, 48 h
Excerpt: In each case, total RNA was extracted using a Qiagen RNeasy Mini Kit and amplified and labeled by using an One-Color Low Input Quick Amp Labeling Kit (Agilent, Santa Clara, CA, catalog no. 5190-2305), after which it was hybridized to the SurePrint G3 Human GE 8 × 60 K microarray (Agilent-028004), which contains 42,545 unique probes targeting 27,958 Entrez genes. Microarrays were scanned with an Agilent array scanner (G2565CA) at 3-μm resolution. Microarray data were extracted by Agilent Feature Extraction software (v10.5.1.1). Quantile normalization of log-transformed, background-subtracted signal intensity was performed for all samples. This was followed by comparisons between sets of replicates from different experimental groups. Student’s t-test was used to determine the statistical significance of the difference between the paired samples from three replicates of each experiment. […] The data processing and PCA analysis were performed using Partek software (St. Louis, MO)[52]. The GEO accession number for the microarray analysis is GSE90122.

ANKK1 = molecular target: T4, ANKK1 (Homo sapiens, UniProt Q8NFD2); assay: KINOMEscan kinase profiling; type: binding; conditions: read-out: %Inhibition by 10 μM SPA70
T4 construct: purchased DiscoverX (Ambit Biosciences) KINOMEscan
T4 sequence (Q8NFD2 whole entry): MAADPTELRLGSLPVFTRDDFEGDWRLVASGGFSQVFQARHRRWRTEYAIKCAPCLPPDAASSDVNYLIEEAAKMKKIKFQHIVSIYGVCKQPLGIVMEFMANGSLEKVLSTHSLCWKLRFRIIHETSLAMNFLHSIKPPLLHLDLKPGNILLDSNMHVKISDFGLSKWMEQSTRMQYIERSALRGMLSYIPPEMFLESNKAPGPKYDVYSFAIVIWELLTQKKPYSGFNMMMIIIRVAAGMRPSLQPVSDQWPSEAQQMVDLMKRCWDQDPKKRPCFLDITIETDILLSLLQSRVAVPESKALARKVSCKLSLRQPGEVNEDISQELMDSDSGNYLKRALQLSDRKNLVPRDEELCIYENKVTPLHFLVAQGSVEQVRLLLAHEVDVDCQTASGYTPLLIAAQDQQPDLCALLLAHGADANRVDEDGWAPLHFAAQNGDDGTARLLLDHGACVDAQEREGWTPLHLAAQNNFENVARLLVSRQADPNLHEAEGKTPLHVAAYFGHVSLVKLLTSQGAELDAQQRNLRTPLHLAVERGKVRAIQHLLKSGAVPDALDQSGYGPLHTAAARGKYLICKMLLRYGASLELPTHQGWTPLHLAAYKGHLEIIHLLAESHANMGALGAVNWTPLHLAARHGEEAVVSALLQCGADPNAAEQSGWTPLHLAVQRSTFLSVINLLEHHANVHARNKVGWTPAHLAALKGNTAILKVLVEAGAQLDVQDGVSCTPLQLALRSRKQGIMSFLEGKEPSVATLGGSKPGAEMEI
Procedure, shortened: (§2)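 KINOMEscan profiling followed a published protocol. Kinases whose inhibition exceeded a set cut-off were then tested in a dilution series beginning at 30 µM.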

MTOR = molecular target: T5, MTOR (Homo sapiens, UniProt P42345); assay: KINOMEscan kinase profiling; type: binding; conditions: read-out: %Inhibition by 10 μM SPA70
T5 construct: purchased DiscoverX (Ambit Biosciences) KINOMEscan
Procedure, shortened: as §2

PIP5K1A = molecular target: T6, PIP5K1A (Homo sapiens, UniProt Q99755); assay: KINOMEscan kinase profiling; type: binding; conditions: read-out: %Inhibition by 10 μM SPA70
T6 construct: purchased DiscoverX (Ambit Biosciences) KINOMEscan
T6 sequence (Q99755 whole entry): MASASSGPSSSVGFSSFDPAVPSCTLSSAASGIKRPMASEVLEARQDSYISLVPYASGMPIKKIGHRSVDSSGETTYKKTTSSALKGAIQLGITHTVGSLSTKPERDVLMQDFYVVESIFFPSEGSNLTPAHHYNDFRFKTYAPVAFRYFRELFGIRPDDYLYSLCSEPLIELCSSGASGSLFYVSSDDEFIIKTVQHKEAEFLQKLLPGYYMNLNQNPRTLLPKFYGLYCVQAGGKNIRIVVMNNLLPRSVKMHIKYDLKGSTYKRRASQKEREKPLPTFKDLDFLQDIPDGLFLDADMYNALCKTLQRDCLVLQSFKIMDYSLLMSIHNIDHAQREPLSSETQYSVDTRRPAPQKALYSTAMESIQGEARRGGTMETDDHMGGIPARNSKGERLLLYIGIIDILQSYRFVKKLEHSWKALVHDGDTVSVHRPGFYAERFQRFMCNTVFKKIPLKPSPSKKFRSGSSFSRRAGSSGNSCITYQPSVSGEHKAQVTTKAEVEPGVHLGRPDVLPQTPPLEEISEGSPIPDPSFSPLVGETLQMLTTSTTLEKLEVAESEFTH
Procedure, shortened: as §2

[3] = molecular target: T7, RPS6KA4(Kin.Dom.2-C-terminal) (Homo sapiens, UniProt O75676); assay: KINOMEscan kinase profiling; type: binding; conditions: read-out: %Inhibition by 10 μM SPA70
T7 construct: RPS6KA4(Kin.Dom.2-C-terminal); purchased DiscoverX (Ambit Biosciences) KINOMEscan
T7 sequence (O75676 372-772 limits assumed): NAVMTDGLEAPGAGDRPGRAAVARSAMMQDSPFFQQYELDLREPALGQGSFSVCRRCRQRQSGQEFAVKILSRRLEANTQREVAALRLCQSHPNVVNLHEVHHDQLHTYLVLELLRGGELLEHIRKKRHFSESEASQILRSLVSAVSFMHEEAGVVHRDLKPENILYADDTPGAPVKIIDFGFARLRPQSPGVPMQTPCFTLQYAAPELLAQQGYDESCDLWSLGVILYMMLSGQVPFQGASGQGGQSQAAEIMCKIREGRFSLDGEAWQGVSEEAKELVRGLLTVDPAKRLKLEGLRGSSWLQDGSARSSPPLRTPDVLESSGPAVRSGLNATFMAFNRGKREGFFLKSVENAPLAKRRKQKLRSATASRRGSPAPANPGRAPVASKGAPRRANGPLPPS
Procedure, shortened: as §2

BRSK2 = molecular target: T8, BRSK2 (Homo sapiens, UniProt Q8IWQ3); assay: KINOMEscan kinase profiling; type: binding; conditions: read-out: %Inhibition by 10 μM SPA70
T8 construct: purchased DiscoverX (Ambit Biosciences) KINOMEscan
Procedure, shortened: as §2

CYP3A4 promoter = assay: hPXR-CYP3A4-luc reporter mice (hydrodynamic injection), bioluminescence imaging; type: in vivo, mouse; conditions: transient transgenic mice, SPA70 150 mg kg−1, RIF 10 mg kg−1
Experimental: For the hydrodynamic injections, treatment, and in vivo imaging, in vivo delivery of the CYP3A4-luc reporter gene and the hPXR gene into mouse liver was performed using the hydrodynamic injection method described previously, [53], [54]. Briefly, by a rapid (5–10 s) tail-vein injection, each mouse received 25 μg of linearized CYP3A4-luc plasmid DNA with linearized hPXR plasmid DNA in sterile saline in a volume equal to 10% of its body weight. Imaging for luciferase activity was performed 2–8 weeks after somatic gene transfer (the bioluminescence was stable in the mice during the 2–8 weeks period). Fifteen mice were given i.p. injections of VivoGlo luciferin (Promega) (150 mg kg^−1 of body weight), anesthetized with 2.5% isoflurane, and imaged 10 min later in a Xenogen IVIS 200 system (Xenogen) to obtain a basal image. […] The mice were imaged 10 h after the last treatment in each round. The Living Image 3.2 software (Xenogen) was used to analyze the total photon flux of uniform regions of interest drawn around the liver. The CYP3A4-luc reporter activity (expressed as induction rate) was determined by using the total photon flux from the same mouse before and after treatment: induction rate = total photon flux (after treatment)/total photon flux (before treatment).

T1 sequence (Q15596 whole entry partner, one chain of several): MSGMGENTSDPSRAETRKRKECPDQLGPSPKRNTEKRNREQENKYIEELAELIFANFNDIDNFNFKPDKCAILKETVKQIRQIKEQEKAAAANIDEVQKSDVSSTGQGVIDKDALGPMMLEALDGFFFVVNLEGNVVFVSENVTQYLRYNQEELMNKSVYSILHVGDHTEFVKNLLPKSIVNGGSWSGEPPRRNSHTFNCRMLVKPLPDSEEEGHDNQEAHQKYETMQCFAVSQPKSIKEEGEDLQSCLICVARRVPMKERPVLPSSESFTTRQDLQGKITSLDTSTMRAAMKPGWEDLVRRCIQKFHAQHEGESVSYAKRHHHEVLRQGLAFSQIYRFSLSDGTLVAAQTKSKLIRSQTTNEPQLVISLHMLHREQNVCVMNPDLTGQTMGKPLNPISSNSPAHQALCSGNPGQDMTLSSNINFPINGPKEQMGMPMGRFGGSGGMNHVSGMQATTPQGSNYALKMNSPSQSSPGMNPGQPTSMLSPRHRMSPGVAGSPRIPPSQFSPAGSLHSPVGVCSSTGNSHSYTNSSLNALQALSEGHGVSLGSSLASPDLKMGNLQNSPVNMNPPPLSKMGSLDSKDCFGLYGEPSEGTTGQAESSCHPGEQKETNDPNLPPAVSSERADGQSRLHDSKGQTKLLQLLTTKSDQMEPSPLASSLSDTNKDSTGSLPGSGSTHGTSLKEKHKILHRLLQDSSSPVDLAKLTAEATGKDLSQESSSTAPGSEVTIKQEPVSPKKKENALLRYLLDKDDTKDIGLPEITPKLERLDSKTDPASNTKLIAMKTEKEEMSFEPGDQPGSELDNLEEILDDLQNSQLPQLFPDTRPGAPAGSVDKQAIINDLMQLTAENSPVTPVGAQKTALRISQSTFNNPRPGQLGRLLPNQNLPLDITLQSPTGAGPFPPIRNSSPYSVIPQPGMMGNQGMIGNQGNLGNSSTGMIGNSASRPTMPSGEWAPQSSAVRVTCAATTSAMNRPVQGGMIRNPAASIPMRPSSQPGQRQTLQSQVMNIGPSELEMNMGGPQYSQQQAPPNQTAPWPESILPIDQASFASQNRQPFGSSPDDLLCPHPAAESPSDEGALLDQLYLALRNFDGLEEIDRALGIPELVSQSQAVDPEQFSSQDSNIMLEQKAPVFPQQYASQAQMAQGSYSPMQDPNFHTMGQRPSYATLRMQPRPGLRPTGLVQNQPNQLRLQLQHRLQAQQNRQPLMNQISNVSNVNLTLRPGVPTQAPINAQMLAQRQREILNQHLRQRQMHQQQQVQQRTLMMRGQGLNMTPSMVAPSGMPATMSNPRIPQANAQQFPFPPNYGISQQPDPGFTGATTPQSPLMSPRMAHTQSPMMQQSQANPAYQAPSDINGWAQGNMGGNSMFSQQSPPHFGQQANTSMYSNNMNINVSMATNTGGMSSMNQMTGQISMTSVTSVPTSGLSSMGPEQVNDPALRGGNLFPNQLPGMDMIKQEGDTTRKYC

SMILES: COc1ccc(OC)c(-n2nnc(S(=O)(=O)c3ccc(C(C)(C)C)cc3)c2C)c1 [SPA70]
- Effect on paclitaxel sensitivity of LS180 cells with exogenous hPXR [1]: re-sensitized the cells to paclitaxel
- Increase of association of hPXR with TIF2 (hPXR with TIF2): did not affect
- Increase of association of hPXR with SRC-1 (hPXR with SRC-1): did not affect
- Effect on activation of hPXR by SJB7 (hPXR): effectively block the activation of hPXR
- Effect on induction of hPXR transcriptional target genes by rifampicin, SR12813 and T090137 [2]: blocked their induction
- inhibition at 10 µM (ANKK1): 0%
- inhibition at 10 µM (MTOR): 0%
- inhibition at 10 µM (PIP5K1A): 0%
- inhibition at 10 µM [3]: 0%
- inhibition at 10 µM (BRSK2): 0%
- Effect on rifampicin-induced activation of the CYP3A4 promoter (CYP3A4 promoter): effectively blocked the rifampicin-induced activation of the CYP3A4 promoter
